In ChEMBL document CHEMBL3797059 (Bioorg Med Chem Lett, 2016) one finds IC50 and inhibition data, which are given here for nine molecules.

Experiment [1] has as its target Vascular endothelial growth factor receptor 2 (Homo sapiens, UniProt P35968). The experiment in a line: Inhibition of recombinant VEGFR2 (unknown origin) using (Glu,Tyr)4:1 as substrate incubated for 60 mins by ELISA.
Experiment [2] addresses T1, Fibroblast growth factor receptor 2 (Homo sapiens, UniProt P21802). The experiment in a line: Inhibition of recombinant FGFR2 (unknown origin) at 10 nM using (Glu,Tyr)4:1 as substrate incubated for 60 mins by ELISA. On the technique in general: In an ELISA, binding on a coated surface is turned into a signal by an enzyme label.
Target sequence in this assay (P21802 22-821 limits assumed): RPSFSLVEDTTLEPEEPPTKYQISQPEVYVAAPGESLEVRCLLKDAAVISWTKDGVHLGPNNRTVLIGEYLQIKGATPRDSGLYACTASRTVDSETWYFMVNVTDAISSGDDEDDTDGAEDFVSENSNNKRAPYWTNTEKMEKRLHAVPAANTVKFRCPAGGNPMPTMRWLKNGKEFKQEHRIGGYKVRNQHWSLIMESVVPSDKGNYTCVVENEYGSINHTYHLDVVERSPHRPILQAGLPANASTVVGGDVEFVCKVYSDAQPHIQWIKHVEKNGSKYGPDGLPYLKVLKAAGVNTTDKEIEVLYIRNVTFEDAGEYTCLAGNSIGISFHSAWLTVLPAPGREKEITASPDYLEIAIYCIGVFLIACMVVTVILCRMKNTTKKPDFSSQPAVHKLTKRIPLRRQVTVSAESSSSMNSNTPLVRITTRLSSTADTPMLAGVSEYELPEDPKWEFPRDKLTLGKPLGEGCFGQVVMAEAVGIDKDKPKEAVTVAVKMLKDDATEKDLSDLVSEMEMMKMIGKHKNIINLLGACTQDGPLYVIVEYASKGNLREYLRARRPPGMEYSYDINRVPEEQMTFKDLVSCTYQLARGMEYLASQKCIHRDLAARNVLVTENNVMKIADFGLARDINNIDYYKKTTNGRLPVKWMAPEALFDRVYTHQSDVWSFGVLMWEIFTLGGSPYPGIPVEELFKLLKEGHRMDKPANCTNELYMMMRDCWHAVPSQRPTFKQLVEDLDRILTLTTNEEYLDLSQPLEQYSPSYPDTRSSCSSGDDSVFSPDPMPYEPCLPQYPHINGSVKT
Experiment [3] concerns the target T1, Fibroblast growth factor receptor 2. As to the kind of experiment: Inhibition of FGFR2 (unknown origin) at 1 nM using (Glu,Tyr)4:1 as substrate incubated for 60 mins by ELISA.
Target sequence in this assay (P21802 22-821 limits assumed): as above
For experiment [4] the target is unchanged. As to the kind of experiment: Inhibition of recombinant FGFR2 (unknown origin) using (Glu,Tyr)4:1 as substrate incubated for 60 mins by ELISA.
The target of experiment [5] is T2, Fibroblast growth factor receptor 1 (Homo sapiens, UniProt P11362). As to the kind of experiment: Inhibition of recombinant FGFR1 (unknown origin) using (Glu,Tyr)4:1 as substrate incubated for 60 mins by ELISA.
Target sequence in this assay (P11362 whole entry): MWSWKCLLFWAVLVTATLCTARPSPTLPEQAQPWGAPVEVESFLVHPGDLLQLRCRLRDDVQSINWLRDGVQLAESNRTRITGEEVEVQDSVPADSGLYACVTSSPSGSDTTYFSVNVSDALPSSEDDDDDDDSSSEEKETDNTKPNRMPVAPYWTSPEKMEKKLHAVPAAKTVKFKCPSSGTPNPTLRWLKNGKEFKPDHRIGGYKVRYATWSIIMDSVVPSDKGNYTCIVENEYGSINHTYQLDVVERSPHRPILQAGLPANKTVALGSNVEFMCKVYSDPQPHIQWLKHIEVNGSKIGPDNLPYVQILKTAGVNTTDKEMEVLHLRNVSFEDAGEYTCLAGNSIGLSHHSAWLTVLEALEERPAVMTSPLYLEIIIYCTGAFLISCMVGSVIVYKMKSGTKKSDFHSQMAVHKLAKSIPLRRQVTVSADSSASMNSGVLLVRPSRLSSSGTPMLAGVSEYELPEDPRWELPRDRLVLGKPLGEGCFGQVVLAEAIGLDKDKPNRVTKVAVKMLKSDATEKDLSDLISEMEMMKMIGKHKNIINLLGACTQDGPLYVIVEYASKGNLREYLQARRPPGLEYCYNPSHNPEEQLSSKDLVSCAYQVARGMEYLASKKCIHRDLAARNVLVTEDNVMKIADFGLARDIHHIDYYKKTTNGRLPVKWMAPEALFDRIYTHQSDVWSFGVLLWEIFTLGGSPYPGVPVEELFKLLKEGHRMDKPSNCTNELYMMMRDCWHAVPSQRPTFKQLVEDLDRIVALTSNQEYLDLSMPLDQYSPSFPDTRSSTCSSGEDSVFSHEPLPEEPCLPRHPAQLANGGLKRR
In experiment [6] the target is Fibroblast growth factor receptor 3 (Homo sapiens, UniProt P22607). The experiment in a line: Inhibition of recombinant FGFR3 (unknown origin) using (Glu,Tyr)4:1 as substrate incubated for 60 mins by ELISA.
The target in experiment [7] is Fibroblast growth factor receptor 4 (Homo sapiens, UniProt P22455). The experiment in a line: Inhibition of recombinant FGFR4 (unknown origin) using (Glu,Tyr)4:1 as substrate incubated for 60 mins by ELISA.
Sequence of Fibroblast growth factor receptor 4 (P22455 whole entry): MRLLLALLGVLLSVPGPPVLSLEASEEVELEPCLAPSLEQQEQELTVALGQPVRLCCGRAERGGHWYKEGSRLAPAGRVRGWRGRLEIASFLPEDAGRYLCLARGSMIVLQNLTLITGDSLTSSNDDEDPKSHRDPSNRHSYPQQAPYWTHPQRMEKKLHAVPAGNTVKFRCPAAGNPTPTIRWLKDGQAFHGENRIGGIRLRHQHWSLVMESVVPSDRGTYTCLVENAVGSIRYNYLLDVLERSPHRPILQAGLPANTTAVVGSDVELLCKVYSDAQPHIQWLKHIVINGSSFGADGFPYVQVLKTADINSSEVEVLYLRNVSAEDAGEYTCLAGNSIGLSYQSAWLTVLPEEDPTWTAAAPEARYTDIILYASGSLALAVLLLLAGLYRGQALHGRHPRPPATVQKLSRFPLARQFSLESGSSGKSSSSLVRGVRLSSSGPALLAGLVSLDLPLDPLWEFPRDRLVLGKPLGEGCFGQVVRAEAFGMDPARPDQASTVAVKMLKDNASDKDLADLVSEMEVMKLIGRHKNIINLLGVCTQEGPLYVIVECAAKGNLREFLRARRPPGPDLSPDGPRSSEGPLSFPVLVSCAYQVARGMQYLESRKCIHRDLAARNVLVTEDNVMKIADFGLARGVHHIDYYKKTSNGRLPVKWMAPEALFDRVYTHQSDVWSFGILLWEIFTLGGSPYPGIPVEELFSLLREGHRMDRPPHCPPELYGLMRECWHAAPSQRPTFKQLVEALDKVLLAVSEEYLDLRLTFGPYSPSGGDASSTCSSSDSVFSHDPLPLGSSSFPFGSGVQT
For experiment [8], the target named is T2, Fibroblast growth factor receptor 1. As to the kind of experiment: Inhibition of FGFR1 phosphorylation in human KG1 cells incubated for 2 hrs by Western blot analysis. The experiment is classed as cell-based. The conditions noted are these: KG-1. A general note: Immunoblotting shows a protein as a band on a membrane.
Target sequence in this assay (P11362 22-822 limits assumed): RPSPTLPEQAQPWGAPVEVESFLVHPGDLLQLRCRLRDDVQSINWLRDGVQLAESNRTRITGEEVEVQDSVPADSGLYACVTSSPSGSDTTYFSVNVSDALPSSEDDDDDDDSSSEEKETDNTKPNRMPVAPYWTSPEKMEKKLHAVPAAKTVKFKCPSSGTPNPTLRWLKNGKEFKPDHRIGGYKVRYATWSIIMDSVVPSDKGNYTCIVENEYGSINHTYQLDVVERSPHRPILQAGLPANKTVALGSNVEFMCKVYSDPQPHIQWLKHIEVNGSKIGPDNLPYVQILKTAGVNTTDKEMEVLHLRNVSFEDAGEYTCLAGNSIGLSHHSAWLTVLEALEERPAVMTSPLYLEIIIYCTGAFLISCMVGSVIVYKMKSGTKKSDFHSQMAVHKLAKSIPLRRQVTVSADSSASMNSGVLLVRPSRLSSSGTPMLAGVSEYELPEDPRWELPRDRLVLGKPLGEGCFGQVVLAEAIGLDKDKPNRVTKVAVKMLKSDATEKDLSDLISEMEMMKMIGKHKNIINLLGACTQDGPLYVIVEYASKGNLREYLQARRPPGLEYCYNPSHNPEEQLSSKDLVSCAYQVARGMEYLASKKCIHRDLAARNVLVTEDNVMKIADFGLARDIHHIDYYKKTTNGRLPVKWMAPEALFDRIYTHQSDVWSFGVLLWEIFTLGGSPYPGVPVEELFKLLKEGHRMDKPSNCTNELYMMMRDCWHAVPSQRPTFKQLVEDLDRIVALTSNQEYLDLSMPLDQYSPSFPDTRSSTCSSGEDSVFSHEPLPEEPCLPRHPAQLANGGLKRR
For experiment [9] the target is unchanged. As to the kind of experiment: Inhibition of FGFR1 phosphorylation in human KG1 cells assessed as reduction of phospho-PLCgamma level at 0.4 to 10 nM incubated for 2 hrs by Western blot analysis. Particulars: KG-1. It is filed as cell-based.
Target sequence in this assay (P11362 22-822 limits assumed): as above
Experiment [10] has the same target. As to the kind of experiment: Inhibition of FGFR1 phosphorylation in human KG1 cells assessed as reduction of phospho-ERK level at 0.4 to 10 nM incubated for 2 hrs by Western blot analysis. It is filed as cell-based. The conditions noted are these: KG-1.
Target sequence in this assay (P11362 22-822 limits assumed): as above

In general, IC50 refers to the concentration that gives 50% inhibition. What is called inhibition is the change of the read-out against control, counted positive when it falls.

Calls of active or inactive are those of the source. No cut-off for these calls is given here.

Sequence of Vascular endothelial growth factor receptor 2 (P35968 whole entry): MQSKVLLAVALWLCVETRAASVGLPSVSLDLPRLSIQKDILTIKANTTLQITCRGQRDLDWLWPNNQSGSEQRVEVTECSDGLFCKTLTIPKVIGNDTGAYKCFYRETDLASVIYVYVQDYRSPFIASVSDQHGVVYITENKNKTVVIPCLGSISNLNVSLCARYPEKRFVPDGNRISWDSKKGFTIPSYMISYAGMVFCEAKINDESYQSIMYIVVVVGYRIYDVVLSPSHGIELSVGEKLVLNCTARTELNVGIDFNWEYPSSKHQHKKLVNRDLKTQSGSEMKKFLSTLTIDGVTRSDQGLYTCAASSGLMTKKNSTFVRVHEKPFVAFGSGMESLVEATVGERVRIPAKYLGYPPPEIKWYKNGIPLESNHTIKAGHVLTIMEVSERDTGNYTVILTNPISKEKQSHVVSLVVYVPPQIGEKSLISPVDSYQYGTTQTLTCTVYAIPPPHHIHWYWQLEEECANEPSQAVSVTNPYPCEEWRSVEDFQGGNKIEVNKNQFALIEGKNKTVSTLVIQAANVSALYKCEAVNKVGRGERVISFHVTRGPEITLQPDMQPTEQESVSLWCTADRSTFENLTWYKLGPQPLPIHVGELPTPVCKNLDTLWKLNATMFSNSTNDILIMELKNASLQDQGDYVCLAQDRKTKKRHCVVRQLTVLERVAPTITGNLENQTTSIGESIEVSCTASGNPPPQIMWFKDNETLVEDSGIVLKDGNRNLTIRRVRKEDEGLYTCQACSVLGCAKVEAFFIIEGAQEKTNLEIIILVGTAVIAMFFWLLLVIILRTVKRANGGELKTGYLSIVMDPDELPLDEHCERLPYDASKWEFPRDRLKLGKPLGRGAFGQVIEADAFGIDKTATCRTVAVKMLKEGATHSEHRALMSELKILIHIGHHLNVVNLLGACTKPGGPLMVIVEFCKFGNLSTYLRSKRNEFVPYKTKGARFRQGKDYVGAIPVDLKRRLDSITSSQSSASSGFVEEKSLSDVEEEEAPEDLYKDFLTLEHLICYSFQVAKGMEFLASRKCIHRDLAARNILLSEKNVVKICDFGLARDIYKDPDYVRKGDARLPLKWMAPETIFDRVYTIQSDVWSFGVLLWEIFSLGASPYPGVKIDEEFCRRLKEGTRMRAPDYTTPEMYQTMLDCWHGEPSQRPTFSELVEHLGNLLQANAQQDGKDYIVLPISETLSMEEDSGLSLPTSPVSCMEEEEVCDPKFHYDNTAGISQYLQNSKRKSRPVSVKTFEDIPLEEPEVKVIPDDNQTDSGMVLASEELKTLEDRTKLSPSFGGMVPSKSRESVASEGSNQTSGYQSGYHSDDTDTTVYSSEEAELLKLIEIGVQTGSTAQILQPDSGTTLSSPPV

For the molecule `CCN1CCN(c2ccc3c(Nc4cc(CCc5c(Cl)c(OC)cc(OC)c5Cl)[nH]n4)ncnc3c2)CC1`, the IC50 in experiment [1] was found to be 17.5 nM.
As to `COc1cc(CCc2cc(Nc3ncnc4cc(OC)ccc34)n[nH]2)cc(OC)c1`, the inhibition in [2] came to 73.3%; in experiment [3], 16.9%.
For `CCN1CCN(c2ccc3c(Nc4cc(CCc5cc(OC)cc(OC)c5)[nH]n4)nc(NCc4cc(C)no4)nc3c2)CC1`, the IC50 in [4] was under 10 nM.
For `COCCOc1ccc2c(Nc3cc(CCc4cc(OC)cc(OC)c4)[nH]n3)ncnc2c1`, the IC50 in [1] is over 100 nM.
Turning to `CCc1nc(Nc2cc(CCc3cc(OC)cc(OC)c3)[nH]n2)c2ccc(N3CCN(CC)CC3)cc2n1`, in experiment [1], the IC50 was determined as 35.8 nM.
With `COc1cc(CCc2cc(Nc3ncnc4cc(NCCN5CCOCC5)ccc34)n[nH]2)cc(OC)c1`, the IC50 in experiment [1] is over 100 nM.
In turn, `COc1cc(CCc2cc(Nc3ncnc4cc(N5CCCCC5)ccc34)n[nH]2)cc(OC)c1` had an inhibition in experiment [3] of 87.4%.
As for `COc1cc(CCc2cc(Nc3ncnc4cc(N5CCN(S(=O)(=O)c6ccc(C)cc6)CC5)ccc34)n[nH]2)cc(OC)c1`, the inhibition in [2] was found to be 41.8%.
Regarding `COc1cc(CCc2cc(Nc3ncnc4cc(N5CCN6CCCCC6C5)ccc34)n[nH]2)cc(OC)c1` (stereo unspecified), the concentration for half-maximal inhibition (IC50) in [1] amounted to 21.5 nM; in experiment [5] it was 1 nM; in [6], 5 nM; in [7], 52.7 nM. For the same molecule, in [8], the inhibition entry was “Dose-dependent effect”. The inhibition result in experiment [9] and in experiment [10] was “Active” throughout.
